The values that follow come from US20250326779A1, “ANTI-HIV COMPOUNDS” (priority 2024, published 2025).

Values after ≈ are worked out from the molar mass of the structure shown.

Data set [1] can be described thus: Intestinal S9 Assay (human). In kind it is in vitro ADME. Conditions: pooled intestinal S9 fraction, 1.0 mg/mL S9 protein, 2 μM substrate, TRIS pH 7.4, read-out: Human GI S9 T½. How it is done: (§1) Reagents. Stock solutions of test compounds in dimethyl sulfoxide (DMSO) having a final concentration of 10 mM were prepared and used in all experiments. Sekisui XenoTech (Kansas City, KS) provided pooled intestinal S9 fractions. All other chemicals were purchased from Sigma-Aldrich (St. Louis, MO) or VWR (West Chester, PA).
(§2) Intestinal S9 Assay: For each test compound, an aliquot of the test compound was added to S9 stock diluted with TRIS buffer (100 mM TRIS, 1 mM ZnCl2, 1 mM MgCl2), pH 7.4, to obtain an incubation protein concentration of 1.0 mg/mL. The incubation was initiated by the addition of the substrate to the S9 reaction mixture to a final concentration of 2 μM. […] After quenching, the plates were centrifuged at 3000×g for 30 minutes. 150 μL aliquots of each supernatant were transferred to new plates and 150 μL water was added. Aliquots (10 μL) of the prepared samples were analyzed on a Thermo Q-Exactive mass spectrometer as described below.
(§3) Liquid Chromatography-Mass Spectrometry: Quantification of test compounds and control substrate was performed by analyte/internal standard peak area ratio (PAR) values measured on a Thermo Q-Exactive mass spectrometer coupled to a Dionex UltiMate 3000 HPLC with a Leap Technologies HTC PAL autosampler. The column used for analysis was a Thermo Scientific Hypersil GOLD (1.9 μm particle size, 50×2.1 mm). […]

For the next data set, the system named is HIV-1 IIIB strain. Nature of the data set: MT-4 HIV Wild Type Virus Infection Assay (IIIB Virus). Type of data set: cell-based. Conditions: Human immunodeficiency virus 1, MT4, 120 h; MT-4 cells acutely infected with HIV-1 IIIB, 5 day incubation, Cell-titer glo. How it is done:
MT-4 HIV Wild Type Virus Infection Assay (IIIB Virus)
Test compounds and controls were serially diluted and spotted in replicate into 384 well black assay plates via acoustic transfer (Echo). MT-4 cells were grown in batch, centrifuged and resuspended into fresh CCM media (RPMI w/10% FBS, 1% PS) at 2×10^6 cells/ml. MT-4 cells were acutely infected with HIV-1 IIIB strain. The size of each infection mix was scaled by the number of sample plates to be tested. Each infection mix was transferred into 5 mL closed tubes and nutated rapidly on a shaker at 37° C. incubator for 1 hour. The infection mixes were then diluted 25× in fresh cell culture media and then added to assay plates at 40 μL per well using a ViaFlo 384 pipettor. After 5 day incubation at 37° C. in a C02 incubator, assay plates were processed with Cell-titer glo reagent using a ViaFlo 384 with an addition/mixing program. Plates were read immediately on Envision reader. Assay signals were plotted and dose response curves generated to determine individual compound EC50s.

A short description of the next data set: pH 7 Stability Assay. In kind it is physicochemical. Particulars: ACN/pH 7.4 buffer with 1% DMSO stock; 1/49.5/49.5% v/v DMSO stock/ACN/pH 7.4 buffer, UPLC 0-24 h; read-out: pH7 T½.
The nature of data set [2]: Intestinal S9 Assay (dog). Type of data set: in vitro ADME. Particulars: pooled intestinal S9 fraction, 1.0 mg/mL S9 protein, 2 μM substrate, TRIS pH 7.4, read-out: Dog GI S9 T½. How it is done:
as §1, §2, §3

The target in data set [3] is T1, bovine intestinal alkaline phosphatase (Bos taurus, UniProt P19111).
T1 construct: purchased Millipore Sigma (St. Louis, MO) or Thermo Fisher Scientific (Waltham, MA)
T1 sequence (P19111 20-506 limits assumed): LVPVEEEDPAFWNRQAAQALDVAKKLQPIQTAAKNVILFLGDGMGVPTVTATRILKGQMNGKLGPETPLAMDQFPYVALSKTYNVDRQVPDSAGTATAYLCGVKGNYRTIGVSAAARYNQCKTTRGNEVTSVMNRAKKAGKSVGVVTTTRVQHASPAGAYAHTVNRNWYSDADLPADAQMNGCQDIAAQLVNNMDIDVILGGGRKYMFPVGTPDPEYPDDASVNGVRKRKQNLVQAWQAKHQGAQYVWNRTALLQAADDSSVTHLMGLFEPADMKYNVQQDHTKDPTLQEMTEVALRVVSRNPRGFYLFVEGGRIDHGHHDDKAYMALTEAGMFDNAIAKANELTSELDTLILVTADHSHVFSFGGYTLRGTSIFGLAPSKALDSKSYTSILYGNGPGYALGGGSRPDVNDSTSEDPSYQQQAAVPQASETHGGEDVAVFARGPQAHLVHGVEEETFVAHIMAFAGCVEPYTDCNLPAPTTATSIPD
The data set is described as follows: BiALP: conversion by bovine intestinal alkaline phosphatase. Type of data set: in vitro ADME. Conditions: remaining substrate after 60 min at 37° C., 2 μM substrate, 100 ng/mL iALP, Tris buffer pH 7.8. How it is done: Fosamprenavir and its parent compound (amprenavir) were purchased from Millipore Sigma (St. Louis, MO). Test compounds, Intermediate A, fosamprenavir, and amprenavir were each separately dissolved in dimethyl sulfoxide (DMSO) at a concentration of 10 mM to form stock solutions.
All other chemicals were purchased from Millipore Sigma (St. Louis, MO) and Thermo Fisher Scientific (Waltham, MA). The chemicals included purified bovine intestinal alkaline phosphatase as a lyophilized powder (specific activity: 101 diethanolamine units/mg solid). Internal Standard/Quench (IS/Q) was 100 nM labetalol in 99:1 (v/v) acetonitrile/formic acid.
Incubations were performed with Tris buffer alone (0.1 M Tris-HCl pH 7.8 containing 1 mM MgCl2 and 1 mM ZnCl2) or the same Tris buffer further containing 100 ng/mL iALP (0.01 units/mL). Triplicate 100 μL aliquots of Tris buffer±iALP were warmed to 37° C. and the reactions were initiated by the addition of the test compound or fosamprenavir to obtain final substrate concentrations of 2 μM. Incubations were then continued at 37° C. […] Aliquots (15 μL) of the diluted supernatants were analyzed by mass spectrometry as described below.
Quantification of the test compounds and fosamprenavir was performed by analyte/internal standard peak area ratios (PARs) with comparison to 2 μM Intermediate A and amprenavir, respectively. […]

A short description of a further data set: Solubility in FaSSIF. Type of data set: physicochemical. Particulars: 23 °C, thermodynamic from solid; FaSSIF pH 6.5, 5 mg/mL dose concentration, 2-hour incubation, ambient temperature. How it is done: Buffer Preparation: Fasted State Simulated Intestinal Fluid (FaSSIF): Simulated Intestinal Fluid (SIF) powder containing a complex of Taurocholate and Lecithin (4:1 molar ratio) was obtained from Biorelevant. […] The buffer was prepared with HPLC H2O.
Test Compounds: Each test compound was placed in a vial containing approximately 7 mg of material. Aliquots were weighed out for each assay media at each time point to be analyzed. The buffer was added to each vial such that the final dose concentration of 5 mg/mL was achieved. Samples were then vortexed for 5-10 seconds.
The plate was sealed with a pierceable heat seal and analyzed by HPLC-UV.

Description for pH 7 Stability Assay: pH 7 Stability Assay: A sample stock at approximately 10 mg/mL of each test compound was prepared with dimethyl sulfoxide (DMSO) in vials. […] Sample vials were prepared by adding 495 μL ACN into a UPLC vial followed by 495 μL pH 7.4 buffer. Then 10 μL test compound stock solution from the first step was added to that UPLC vial. 1000 uL 50/50% v/v ACN/Water was used as diluent blank.
Metabolic stabilities were determined by measuring the rates of disappearance of test compound and positive control substrate. • Data (% of substrate remaining) were plotted on a semi-log scale and fitted using an exponential decline model:
[formula] • Assuming a first-order reaction, the slope (k) is extrapolated from the aforementioned plotted data.

On to `COC(=O)N[C@H](C(=O)N[C@@H](Cc1ccc(C#Cc2cnc(N3CC4CCC(C3)N4C3COC3)nc2)cc1)[C@H](CN(Cc1c(F)cc(-c2ccn(C(F)F)n2)cc1F)NC(=O)[C@@H](NC(=O)OC)C(C)(C)C(F)(F)F)OCOP(=O)(O)O)C(C)(C)C(F)(F)F` [Compound 1, methyl ((5S,8S,9S,14S)-11-(4-(1-(difluoromethyl)-1H-pyrazol-3-yl)-2,6-difluorobenzyl)-16,16,16-trifluoro-15,15-dimethyl-8-(4-((2-(8-(oxetan-3-yl)-3,8-diazabicyclo[3.2.1]octan-3-yl)pyrimidin-5-yl)ethynyl)benzyl)-3,6,13-trioxo-9-((phosphonooxy)methoxy)-5-(1,1,1-trifluoro-2-methylpropan-2-yl)-2-oxa-4,7,11,12-tetraazahexadecan-14-yl)carbamate], for which the half-life at 2 μM in data set [1] was found to be 0.787 h; in data set [2], 1.36 h. Besides, in the data set on HIV-1 IIIB strain, the response was half-maximal at 0.0223 µM (EC50). In addition, the half-life at 0.1 mg/mL in the data set “pH 7 Stability Assay” is more than 480 h. In addition, the “[Compound]” value in data set [3] was determined as 1691 nM. Besides, the solubility (as a rule, the dissolved amount per volume that the medium holds) at 2 h in “Solubility in FaSSIF” was 580 µg/mL (≈ 458 µM).
For the molecule `CC(C)CN(C[C@@H](OP(=O)(O)O)[C@H](Cc1ccccc1)NC(=O)O[C@H]1CCOC1)S(=O)(=O)c1ccc(N)cc1` [Fosamprenavir, reference compound], the “[Compound]” value in data set [3] came out at 1605 nM.
